{"source": "paper PMC5042876", "about": "(Journal of the American Chemical Society, 2016)", "key": {"[1]": {"molecular_target": "wild-type PntM (CYP161C2) (Streptomyces arenae, UniProt E3VWI3)", "sequence (E3VWI3 whole entry)": "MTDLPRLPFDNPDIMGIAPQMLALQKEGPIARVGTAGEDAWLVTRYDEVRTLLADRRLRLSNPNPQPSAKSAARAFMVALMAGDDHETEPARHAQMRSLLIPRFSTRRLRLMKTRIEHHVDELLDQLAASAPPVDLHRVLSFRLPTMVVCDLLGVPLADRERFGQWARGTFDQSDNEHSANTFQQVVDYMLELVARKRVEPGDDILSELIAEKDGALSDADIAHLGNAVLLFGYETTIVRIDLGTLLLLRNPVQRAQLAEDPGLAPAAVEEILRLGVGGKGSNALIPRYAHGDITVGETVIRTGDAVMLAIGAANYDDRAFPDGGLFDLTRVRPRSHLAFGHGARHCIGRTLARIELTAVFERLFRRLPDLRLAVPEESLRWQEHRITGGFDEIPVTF", "assay": "Substrate binding assay"}, "[2]": {"molecular_target": "T1, PntM F232H (Streptomyces arenae, UniProt E3VWI3, F232H)", "T1 sequence (E3VWI3 1-398 F232H)": "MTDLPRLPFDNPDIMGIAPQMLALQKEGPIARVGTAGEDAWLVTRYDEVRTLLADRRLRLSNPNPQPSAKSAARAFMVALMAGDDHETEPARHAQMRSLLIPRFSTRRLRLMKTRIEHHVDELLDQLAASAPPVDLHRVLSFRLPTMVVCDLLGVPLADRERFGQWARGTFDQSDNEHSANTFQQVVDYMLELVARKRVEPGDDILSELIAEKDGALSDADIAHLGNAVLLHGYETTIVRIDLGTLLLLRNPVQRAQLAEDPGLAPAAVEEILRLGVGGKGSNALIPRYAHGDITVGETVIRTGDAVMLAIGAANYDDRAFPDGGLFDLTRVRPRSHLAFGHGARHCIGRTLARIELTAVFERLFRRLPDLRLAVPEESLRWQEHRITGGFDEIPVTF", "assay": "Substrate binding assay, PntM F232H", "conditions": "PntM F232H mutant"}, "[3]": {"molecular_target": "T2, PntM M81C (Streptomyces arenae, UniProt E3VWI3, M81C)", "T2 sequence (E3VWI3 1-398 M81C)": "T1 sequence (E3VWI3 1-398 F232H) with M81C, H232F", "assay": "Substrate binding assay"}, "[4]": {"molecular_target": "T3, PntM F232Y (Streptomyces arenae, UniProt E3VWI3, F232Y)", "T3 sequence (E3VWI3 1-398 F232Y)": "T1 sequence (E3VWI3 1-398 F232H) with H232Y", "assay": "Substrate binding assay, PntM F232Y", "conditions": "PntM F232Y mutant"}, "[5]": {"molecular_target": "T4, PntM F232L (Streptomyces arenae, UniProt E3VWI3, F232L)", "T4 sequence (E3VWI3 1-398 F232L)": "T1 sequence (E3VWI3 1-398 F232H) with H232L", "assay": "Substrate binding assay"}, "[6]": {"molecular_target": "T5, PntM F232A (Streptomyces arenae, UniProt E3VWI3, F232A)", "T5 sequence (E3VWI3 1-398 F232A)": "T1 sequence (E3VWI3 1-398 F232H) with H232A", "assay": "Substrate binding assay"}, "[7]": {"molecular_target": "T2, PntM M81C", "assay": "Steady-state kinetics and product profile, PntM M81C", "assay_type": "biochemical", "conditions": "M81C mutant"}, "[8]": {"molecular_target": "T6, PntM M81A (Streptomyces arenae, UniProt E3VWI3, M81A)", "T6 sequence (E3VWI3 1-398 M81A)": "T1 sequence (E3VWI3 1-398 F232H) with M81A, H232F", "assay": "Steady-state kinetics and product profile, PntM M81A", "assay_type": "biochemical", "conditions": "M81A mutant"}, "[9]": {"molecular_target": "T7, PntM-F232G (Streptomyces arenae, UniProt E3VWI3, F232G)", "T7 sequence (E3VWI3 1-398 F232G)": "T1 sequence (E3VWI3 1-398 F232H) with H232G", "assay": "Substrate binding assay"}, "[10]": {"molecular_target": "T8, PntM M81C-BME (Streptomyces arenae, UniProt E3VWI3, M81C)", "T8 sequence (E3VWI3 1-398 M81C)": "T1 sequence (E3VWI3 1-398 F232H) with M81C, H232F", "assay": "Steady-state kinetics and product profile, PntM M81C-BME", "assay_type": "biochemical", "conditions": "M81C-BME mutant"}, "[11]": {"molecular_target": "T5, PntM F232A", "assay": "Steady-state kinetics and product profile, PntM F232A", "assay_type": "biochemical", "conditions": "F232A mutant"}, "[12]": {"molecular_target": "T9, PntM M77S (Streptomyces arenae, UniProt E3VWI3, M77S)", "T9 sequence (E3VWI3 1-398 M77S)": "T1 sequence (E3VWI3 1-398 F232H) with M77S, H232F", "assay": "Steady-state kinetics and product profile, PntM M77S", "assay_type": "biochemical", "conditions": "M77S mutant"}, "[13]": {"molecular_target": "T4, PntM F232L", "assay": "Steady-state kinetics and product profile, PntM F232L", "assay_type": "biochemical", "conditions": "F232L mutant"}, "[14]": {"molecular_target": "T8, PntM M81C-BME", "assay": "Substrate binding assay"}, "[15]": {"molecular_target": "T6, PntM M81A", "assay": "Substrate binding assay"}, "[16]": {"molecular_target": "T9, PntM M77S", "assay": "Substrate binding assay"}, "[17]": {"conditions": "comparator not stated, figures fit comparison with M81C"}}, "note": "Where a chain is given by its changes, count along the chain named.", "data": [{"compound": "CC1(C)C[C@H]2C[C@@H](C(=O)O)[C@@H]3COC(=O)[C@]4(CO4)[C@]23C1", "note": "[compound 7, 6,7-dihydropentalenolactone F]", "values": [{"measurement": "Kd", "setting": "[1]", "value": "170 ± 17", "unit": "µM"}, {"measurement": "binding weaker than natural substrate 2", "setting": "[1]", "value": "~25", "unit": "times"}, {"measurement": "P450 binding spectrum", "setting": "[1]; wild-type PntM, UV shift from 420 nm to 390 nm", "value": "normal Type I P450 binding spectrum"}]}, {"compound": "CC1(C)C[C@H]2C=C(C(=O)O)[C@@H]3COC(=O)[C@]4(CO4)[C@]23C1", "note": "[compound 2, pentalenolactone F]", "values": [{"measurement": "binding of substrate", "setting": "[2]", "value": "did not bind"}, {"measurement": "KD greater than that of wild-type PntM", "setting": "[3]", "value": "4-6 fold"}, {"measurement": "Kd", "setting": "[3]", "value": "43 ± 3", "unit": "µM"}, {"measurement": "binding of substrate", "setting": "[4]", "value": "did not bind"}, {"measurement": "Kd", "setting": "[5]", "value": "160 ± 12", "unit": "µM"}, {"measurement": "Kd", "setting": "[6]", "value": "270 ± 85", "unit": "µM"}, {"measurement": "product profile (GC-MS)", "setting": "[7]", "value": "exclusive formation of the oxidative rearrangement product 1"}, {"measurement": "reduction in kcat/Km compared to wild-type", "setting": "[7]", "value": 10, "unit": "fold"}, {"measurement": "product profile (GC-MS)", "setting": "[8]", "value": "no change in product profile"}, {"measurement": "less active", "setting": "[8]; [17]", "value": "5-15 fold"}, {"measurement": "Kd", "setting": "[9]", "value": "225 ± 45", "unit": "µM"}, {"measurement": "product profile (GC-MS)", "setting": "[10]", "value": "no change in product profile"}, {"measurement": "lower kcat/Km than wild type PntM", "setting": "[11]", "value": "> 60", "unit": "fold"}, {"measurement": "product profile (GC-MS)", "setting": "[11]", "value": "exclusively pentalenolactone"}, {"measurement": "Kd", "setting": "[1]", "value": "7.2 ± 0.8", "unit": "µM"}, {"measurement": "product profile (GC-MS)", "setting": "[12]", "value": "no change in product profile"}, {"measurement": "less active", "setting": "[12]; [17]", "value": "5-15 fold"}, {"measurement": "decrease in kcat compared to wild type PntM", "setting": "[13]", "value": 20, "unit": "fold"}, {"measurement": "reduction in Km compared to wild type PntM", "setting": "[13]", "value": 3, "unit": "fold"}, {"measurement": "reduction in kcat/Km compared to wild type PntM", "setting": "[13]", "value": 7, "unit": "fold"}, {"measurement": "product profile (GC-MS of total product mixture)", "setting": "[13]; no detectable hydroxylation products", "value": "only the natural oxidative rearrangement product, pentalenolactone (1)"}, {"measurement": "KD greater than that of wild-type PntM", "setting": "[14]", "value": "4-6 fold"}, {"measurement": "Kd", "setting": "[14]", "value": "31 ± 1", "unit": "µM"}, {"measurement": "Kd", "setting": "[15]", "value": "340 ± 90", "unit": "µM"}, {"measurement": "Kd", "setting": "[16]", "value": "115 ± 8", "unit": "µM"}]}]}
